From PubChem BioAssay (NCI) come the findings set out here.

Holding throughout (assay): NCI-60 cell line screen, 48 h
Experiment [1] has as its system A549 NSCLC.
For experiment [2], the system named is COLO 205 colon.
For experiment [3], the system named is HT29 colon.
The subject of experiment [4] is MCF7 breast.
The test system of experiment [5] is MDA-MB-435.
Experiment [6] has as its system OVCAR-4 ovarian.
The test system of experiment [7] is OVCAR-8 ovarian.
Experiment [8] deals with RPMI-8226 leukemia.
For experiment [9], the system named is SK-OV-3 ovarian.
Experiment [10] has as its system SR leukemia.
Experiment [11] has as its system SK-MEL-2 melanoma.

Several values for one entry are separate records, joined by “and”; a condition that tells them apart may be missing. Equal values may be shown once.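 How tested: cells in 96-well plates exposed to compound for 48 hours at five concentrations. At the GI50, growth is halved. Definition used: TGI = concentration required for complete inhibition of growth.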

As to `CCCCOP(=O)(OCCCC)C(NS(=O)(=O)c1ccccc1)(C(=O)OCC)C(F)(F)F` (stereo unspecified), the TGI was over 100 µM in [1]; 38.7 µM in experiment [2]; over 100 µM in [3]; 76.1 µM in experiment [4]; 56.3 µM in experiment [5]; 94.9 µM in experiment [6]. In addition, the TGI in experiment [7] was over 100 µM; in [8], 66.1 µM; in [9], over 100 µM; in experiment [10], over 100 µM.
With `C/C(=N\NC(=S)N/N=C(\C)c1ccccn1)c1ccccn1`, the TGI in experiment [1], in experiment [2], in experiment [3], in experiment [4], in experiment [5] and in experiment [6] was over 100 µM throughout. Moreover, the TGI in experiment [7], in experiment [8], in experiment [9] and in [10] was over 100 µM throughout.
As to `Cc1cc(C)c2c(=O)n(CC(O)CN3CCN(c4ncccn4)CC3)sc2n1` (stereo unspecified), the TGI came to 31.2 µM in [1]; 33 µM in experiment [2]; 29.6 µM in experiment [3]; 31.8 µM in experiment [4]; 30.1 µM in experiment [5]; 37.3 µM in experiment [6]. Also, the TGI was 38.2 µM in experiment [7]; 44 µM in [8]; 32.7 µM in [11]; 32.8 µM in [9]; 36.5 µM in experiment [10].
Consider `CO/C=C(/C(=O)OC)c1ccccc1[C@H]1C[C@@H]1c1ccc(OC)cc1`, for which the TGI in experiment [1] was 65.6 µM; in experiment [2] it was 25.8 µM; in experiment [3], 38.7 µM; in experiment [4], over 100 µM; in [5], 27.8 µM; in experiment [6], 45 µM. Moreover, the TGI was over 100 µM in experiment [7]; 58.5 µM in experiment [8]; 32.1 µM in experiment [11]; 60.7 µM in experiment [9]; 45.4 µM in experiment [10].
For the compound `CC1CN=C(c2ccc3c(c2)Cc2cc(C4=NCC(C)N4)ccc2-3)N1` (stereo unspecified), the TGI in experiment [1] was over 100 µM; in experiment [2], over 100 µM; in experiment [3], over 100 µM; in experiment [4], 65.3 µM; in [5], 63.9 µM; in [6] it was 48.6 µM. In addition, the TGI was over 100 µM in experiment [7]; 98.7 µM in experiment [8]; 44.8 µM in experiment [11]; over 100 µM in experiment [9]; over 100 µM in [10].
For the compound `CCOC(=O)Cn1c(=O)c2cc(C)cc3c(Cl)nc4c(OC)c(OC)cc1c4c32`, the TGI in [1], in [2], in [3], in experiment [4], in experiment [5] and in experiment [6] was over 100 µM each time. In addition, the TGI in experiment [7], in experiment [8], in [11], in [9] and in experiment [10] was over 100 µM each time.
Regarding `Oc1cccc(-c2cc(=S)ss2)c1`, the TGI in [1] is 44.5 µM; in experiment [2] it was 35.6 µM; in experiment [3] it was 55.3 µM; in [4] it was 27.5 µM; in [5] it was 53.8 µM; in [6], 40.6 µM. Besides, the TGI amounted to 49.9 µM in [7]; 5.91 µM in experiment [8]; 30.5 µM in experiment [11]; 37.7 µM in [9]; 11.9 µM in [10].
Regarding `Nc1nc(-c2ccccc2)cc(-c2ccc(F)cc2)c1-c1ccc(Cl)cc1`, the TGI in experiment [1], in [2], in [3], in [4], in experiment [5] and in experiment [6] was over 100 µM in each case. Further, the TGI in experiment [7], in experiment [8], in [11], in experiment [9] and in [10] was over 100 µM throughout.
With `Cc1cc(S(=O)(=O)Nc2nc(N)n(-c3ccccc3)n2)c(S)cc1Cl`, the TGI in [1], in experiment [2], in [3], in [4], in [5] and in [6] was over 100 µM in each case. For the same compound, the TGI in experiment [7], in experiment [8], in [11], in [9] and in [10] was over 100 µM in each case.
Consider `NCCCCN(CCCN)C(=O)OCc1ccccc1`, for which the TGI in experiment [1], in experiment [2], in experiment [3], in [4], in [5] and in experiment [6] was over 100 µM in each case. The TGI in experiment [7], in [8], in experiment [11], in experiment [9] and in experiment [10] was over 100 µM in each case.
Take `COC(=O)c1ccc2c(c1)CCN2C(=O)c1cc2c(cc1Br)OCO2`: the GI50 in experiment [1] is 3.27 µM; in experiment [2], 1.13 µM; in [3] it was 0.507 µM; in [4] it was 0.567 µM; in experiment [6], 4.88 µM; in experiment [7] it was 1.52 µM. For the same compound, the figures for the GI50 in experiment [8] and in experiment [10] were 1.15 µM and 0.366 µM, respectively. Also, the TGI in [1] was 50 µM and > 100 µM; in experiment [2] it was 2.62 µM and 3.9 µM; in [3], 50 µM and 12.1 µM; in experiment [4], 50 µM and > 100 µM; in experiment [5] it was 0.994 µM; in experiment [6], 50 µM and > 100 µM. Further, the TGI in experiment [7] is 50 µM and 14.7 µM; in experiment [11], 5.7 µM and 36.4 µM; in [9], over 100 µM; in [10], 50 µM and > 100 µM.
Take `COc1ccc(NC(=O)c2cc(NC(=O)/C=C/c3ccccc3)c(OC)c(OC)c2)cc1`: the TGI in experiment [1] is over 100 µM; in experiment [2] it was over 100 µM; in [3] it was over 100 µM; in [4] it was over 100 µM; in [5], 9.38 µM; in experiment [6], over 100 µM. For the same compound, the TGI in [8] was over 100 µM; in [11], 7.27 µM; in experiment [9] it was over 100 µM; in experiment [10], over 100 µM.
